Where “and” joins values, the source holds several entries; their conditions need not be identical. Equal entries are not always repeated. Structures can show the parent of a compound that is named as a salt.

For the first test, the system named is U937 cells. As to the kind of experiment: Proliferation test ViaLight HS, U937 cells (Example 8). The class given is cell-based, human. Particulars: 72 h incubation; range = multiple experiments, otherwise individual experiments. As to the method:
2C Proliferation test ViaLight® HS High Sensitivity Cytotoxicity and Cell Proliferation BioAssay Kit
This protocol allows the determination of the cytostatic and cytotoxic activities of compounds to be tested on mammalian cells in culture and was carried out essentially according to the manufacturer's recommendations.
Cells are suspended in 15 mL of their respective media and are enumerated. They are then diluted in their media in order to obtain: • 2500 cells per 90 μL per well for MRC5 cells • 5000 cells per 90 μL per well for all other cell lines. Cells are then seeded in a 96 well plate, and incubated at least 4 hours in the incubator at 37° C. in 5% CO2.
The molecules to be tested are diluted in DMEM with DMSO in order to obtain the following dilutions: • dilution at 250 μM/1% DMSO • dilution at 50 μM/1% DMSO • dilution at […] • dilution at 2 μM/1% DMSO • dilution at 400 nM/1% DMSO • dilution at 80 nM/1% DMSO For each well comprising 90 μL of cell suspension, 10 μL of a solution of the compound to be tested is added, with the 6 different concentrations. The plate is then incubated during 72 hours. One control plate is contacted with 10 μL of DMEM 1% DMSO, without compound to be tested. 50 μL of lysis buffer (test Vialight® lysis buffer) is added in each well of the control plate and the plate is incubated 10 minutes under hood.
Then, 100 μL of test buffer (test Vialight® test buffer) is added in each well and the control plate is incubated during 2 minutes. The luminescence is read in each well. The mean luminescence for each type of cells is called T0.
After the 72 h incubation, in order to determine the viability, 50 μL of lysis buffer (test Vialight® lysis buffer) is added in each well of the plates and the plates are incubated 10 minutes under hood.
Then, 100 μL of test buffer (test Vialight® test buffer) is added in each well and the plates are incubated during 2 minutes. The luminescence is read in each well. For each type of cell, the mean luminescence in the well not containing the compound is called C72 and the mean luminescence in well containing a given concentration of a compound to be tested is called T72. For each dilution (concentration of compound to be tested), T0 and T72 values are compared.
The graph is plotted for the different concentrations of compound and • GI50 (50% of growth inhibitory) is determined, this is the dose producing 50% of cell growth (intersection at Y=50); • TGI (total growth inhibitory) is determined on the graph, this is the dose producing the total arrest of the cell growth (intersection at Y=0); and • LC50 (50% of lethal concentration) is determined, this is the dose producing the death of 50% of the cells (intersection at Y=−50).
Following the protocol described in Example 2C, different compounds according to the invention have been tested for their cytostatic and cytotoxic activities on mammalian cells in culture (specifically U937 cells).
The GI50 (50% of growth inhibitory) has been determined for all the following compounds, i.e. the dose producing 50% of cell growth inhibition.
Where the GI50 provided is in the form of a range, it means that multiple experiments, whose results fall within the range indicated, were performed. Otherwise, results of individual experiments are provided.
Consider `COc1cc(NC(=S)NC(=O)/C=C/c2ccco2)ccc1-c1cc2ccccc2[nH]c1=O` [Compound 15, (2E)-3-(2-furyl)-N-({[3-methoxy-4-(2-oxo-1,2-dihydroquinolin-3-yl)phenyl]amino}carbonothioyl)acrylamide], for which the GI50 is 63 nM and 210 nM.

`COc1cc(NC(=O)Nc2ccc(N(C)C)cc2)ccc1-c1cc2ccccc2oc1=O` [Compound 06, 1-(4-dimethylamino-phenyl)-3-[3-methoxy-4-(2-oxo-2H-chromen-3-yl)-phenyl]-urea.HCl] showed a GI50 of 580 nM.

With `COc1cc(NC(=S)NC(=O)c2ccc(F)cc2)ccc1-c1cc2ccccc2oc1=O` [Compound 05, 4-fluoro-N-({[3-methoxy-4-(2-oxo-2H-chromen-3-yl)phenyl]amino}carbonothioyl)benzamide], the GI50 came to 1500 nM.

The compound `COc1cc(NC(=N)NC(=O)c2ccccc2)ccc1-c1cc2ccccc2oc1=O` [Compound 07, N-(imino{[3-methoxy-4-(2-oxo-2H-chromen-3-yl)phenyl]amino}methyl)benzamide] had a concentration for 50% growth inhibition (GI50) of 800 nM.

Still in this test, the particulars now being: Homo sapiens, U-937, 72 h, 72 h incubation; range = multiple experiments, otherwise individual experiments.
`COC(=O)c1ccc(S(=O)(=O)Nc2ccc(-c3cc4ccccc4oc3=O)c(OC)c2)n1C` [Compound 09, methyl 5-({[3-methoxy-4-(2-oxo-2H-chromen-3-yl)phenyl]amino}sulfonyl)-1-methyl-1H-pyrrole-2-carboxylate] had a GI50 of 500 to 600 nM.

For `COc1cc(NC(=S)NC(=O)/C=C/c2ccco2)ccc1-c1cc2ccccc2n(C)c1=O` [Compound 17, (2E)-3-(2-furyl)-N-({[3-methoxy-4-(1-methyl-2-oxo-1,2-dihydroquinolin-3-yl)phenyl]amino}carbonothioyl)acrylamide], the GI50 was 45 nM.

With `COc1cc(NC(=S)Nc2ccc(N3CCOCC3)cc2)ccc1-c1cc2ccccc2oc1=O` [Compound 20, 1-[3-methoxy-4-(2-oxo-2H-chromen-3-yl)-phenyl]-3-(4-morpholin-4-yl-phenyl)-thiourea], the GI50 was determined as 1100 nM.

With `COc1cc(N(C)C(=N)NC(=O)/C=C/c2ccco2)ccc1-c1cc2ccccc2oc1=O` [Compound 19, N′-((E)-3-furan-2-yl-acryloyl)-N-[3-methoxy-4-(2-oxo-2H-chromen-3-yl)-phenyl]-N-methyl-guanidine], growth was halved (GI50) at 9200 nM.

Consider `COc1cc(NC(=S)NC(=O)/C=C/c2ccco2)ccc1-c1cc2ccccc2n(CCO)c1=O` [Compound 21, 1-((E)-3-furan-2-yl-acryloyl)-3-{4-[1-(2-hydroxy-ethyl)-2-oxo-1,2-dihydro-quinolin-3-yl]-3-methoxy-phenyl}-thiourea], for which the GI50 was roughly 90 nM.

Take `COc1cc(NC(=O)Nc2ccc(N(C)C)cc2)ccc1-c1cc2ccccc2oc1=O` [Compound 06, 1-(4-dimethylamino-phenyl)-3-[3-methoxy-4-(2-oxo-2H-chromen-3-yl)-phenyl]-urea.HCl]: the GI50 stood at 320 nM.

In turn, `COc1cc(NC(=S)Nc2ccc(N3CCOCC3)nc2)ccc1-c1cc2ccccc2oc1=O` [Compound 08, 1-[3-methoxy-4-(2-oxo-2H-chromen-3-yl)-phenyl]-3-(6-morpholin-4-yl-pyridin-3-yl)-thiourea] had a GI50 of 1200 nM.

`COc1cc(N(C(C)=O)S(=O)(=O)c2cc(C)oc2C)ccc1-c1cc2ccccc2oc1=O` [Compound 23, 2,5-dimethyl-furan-3-sulfonic acid acetyl-[3-methoxy-4-(2-oxo-2H-chromen-3-yl)-phenyl]-amide] registered a GI50 of roughly 500 nM.

In turn, `COc1cc(NC(=N)NC(=O)c2ccccc2)ccc1-c1cc2ccccc2[nH]c1=O` [Compound 22, N-Benzoyl-N′-[3-methoxy-4-(2-oxo-1,2-dihydro-quinolin-3-yl)-phenyl]-guanidine] gave a concentration for 50% growth inhibition (GI50) of 1000 nM.

Regarding `COc1cc(NC(=S)NC(=O)c2ccccc2)ccc1-c1cc2ccccc2oc1=O` [Compound 02, N-({[3-methoxy-4-(2-oxo-2H-chromen-3-yl)phenyl]amino}carbonothioyl)benzamide], the GI50 fell in the range of 600 to 860 nM.

Take `COc1cc(NC(=N)NC(=O)/C=C/c2ccco2)ccc1-c1cc2ccccc2oc1=O` [Compound 12, (2E)-3-(2-furyl)-N-(imino{[3-methoxy-4-(2-oxo-2H-chromen-3-yl)phenyl]amino}methyl)acrylamide]: the 50% growth inhibitory concentration (GI50) was in the range of 1600 to 2100 nM.

`COc1cc(NC(=O)Nc2cccc(N(C)C)c2)ccc1-c1cc2ccccc2oc1=O` [Compound 18, 1-(3-dimethylamino-phenyl)-3-[3-methoxy-4-(2-oxo-2H-chromen-3-yl)-phenyl]-urea.HCl] gave a GI50 of 150 nM.

In the case of `COc1cc(/N=C(\SC)N(C)C(=O)c2ccc(F)cc2)ccc1-c1cc2ccccc2oc1=O` [Compound 25, 1-(4-fluoro-benzoyl)-3-[3-methoxy-4-(2-oxo-2H-chromen-3-yl)-phenyl]-1,2-dimethyl-isothiourea], the concentration for 50% growth inhibition (GI50) amounted to 410 nM.

Compound `COc1cc(NC(=S)NC(=O)c2ccc(F)cc2)ccc1-c1cc2ccccc2oc1=O` [Compound 05, 4-fluoro-N-({[3-methoxy-4-(2-oxo-2H-chromen-3-yl)phenyl]amino}carbonothioyl)benzamide] returned a 50% growth inhibitory concentration (GI50) of 920 nM.

`COc1cc(/N=C(/NC(=O)/C=C/c2ccco2)SC)ccc1-c1cc2ccccc2oc1=O` [Compound 14, methyl N-[(2E)-3-(2-furyl)prop-2-enoyl]-Ar-[3-methoxy-4-(2-oxo-2H-chromen-3-yl)phenyl]imidothiocarbamate] showed a concentration for 50% growth inhibition (GI50) of 220 nM.

For `COc1cc(NS(=O)(=O)c2cc(C)oc2C)ccc1-c1cc2ccccc2oc1=O` [Compound 13, N-[3-methoxy-4-(2-oxo-2H-chromen-3-yl)phenyl]-2,5-dimethylfuran-3-sulfonamide], the concentration for 50% growth inhibition (GI50) was determined as 100 nM.

Consider `COc1cc(NC(=N)NC(=O)c2ccccc2)ccc1-c1cc2ccccc2oc1=O` [Compound 07, N-(imino{[3-methoxy-4-(2-oxo-2H-chromen-3-yl)phenyl]amino}methyl)benzamide], for which growth was halved (GI50) at 630 nM.

`COc1cc(/N=C(\SC)N(C)C(=O)/C=C/c2ccco2)ccc1-c1cc2ccccc2oc1=O` [Compound 24, 1-((E)-3-furan-2-yl-acryloyl)-3-[3-methoxy-4-(2-oxo-2H-chromen-3-yl)-phenyl]-1,2-dimethyl-isothiourea] yielded a GI50 of 33 nM.

Compound `COc1cc(NC(=O)Nc2ccccc2)ccc1-c1cc2ccccc2oc1=O` [Compound 03, 1-[3-methoxy-4-(2-oxo-2H-chromen-3-yl)-phenyl]-3-phenyl-urea] came in with a GI50 of 610 nM.

The next test deals with T1, interaction between 6×His-Bcl-xL and GST-BF8 (Homo sapiens, UniProt Q07817).
T1 construct: made in house; host or cells: E. coli
T1 sequence (Q07817 whole entry): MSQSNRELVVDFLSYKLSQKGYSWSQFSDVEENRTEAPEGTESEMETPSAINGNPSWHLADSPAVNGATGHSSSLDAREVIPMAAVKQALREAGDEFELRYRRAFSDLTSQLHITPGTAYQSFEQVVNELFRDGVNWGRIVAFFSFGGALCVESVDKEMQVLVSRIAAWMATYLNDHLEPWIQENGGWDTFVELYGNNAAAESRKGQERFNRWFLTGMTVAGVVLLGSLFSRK
Put plainly: Pull down assay, Bcl-xL/BF8 in vitro interaction. The following applies: 50 μM, 5% DMSO; Western blot. The class given is binding. The protocol:
FIG. 3: Inhibition of the interaction between Bcl-xL and BF8, a peptide aptamer that targets the hydrophobic groove of BCL-2 family members. […]
C+: 6×His-Bcl-xL captured by GST-BF8, in presence of 5% DMSO. (02): 6×His-Bcl-xL captured by GST-BF8, in presence of 50 μM of compound 02 (in 5% DMSO). (01): 6×His-Bcl-xL captured by GST-BF8, in presence of 50 μM of compound 01 (in 5% DMSO).
A peptide aptamer (dubbed BF8) has been selected against the anti-apoptotic protein Bfl1, member of the BCL-2 family. […] Two lines of evidence indicate that BF8 binds the hydrophobic groove of anti-apoptotic BCL-2-like proteins. First, the amino-acid sequence of its variable region bears similarities with the sequence of the BH3 domains of pro-apoptotic members of the BCL-2 family (such as Bak or Bax), known to bind the anti-apoptotic proteins via this hydrophobic groove. Second, BF8 no longer binds a mutated variant of Bfl-1 that bears an amino-acid substitution within the said hydrophobic groove.
A Bcl-xL/BF8 in vitro interaction assay was developed to examine the capacity of the compounds of the invention to disrupt this interaction by competition with the peptide aptamer. 6×His-Bcl-xL and GST-BF8 recombinant fusion proteins were expressed in E. coli and purified using affinity chromatography. […]
As to `COc1cc(NC(=S)NC(=O)c2ccccc2)ccc1-c1cc2ccccc2oc1=O` [Compound 02, N-({[3-methoxy-4-(2-oxo-2H-chromen-3-yl)phenyl]amino}carbonothioyl)benzamide], the “Inhibition of the in vitro interaction between 6×His-Bcl-xL and GST-BF8” value is recorded as “inhibit”.
